From patent US9261498B2, “Biomarker for sensitivity to mTOR inhibitor therapy in kidney cancer” (The Regents of the University of California, priority 2005, dated 2016)
Entries after “also recorded” stand apart in the source; their conditions may differ.

System: SN12C-VHLshRNA-HIF-2α mutant xenograft tumors
Experiment: Subcutaneous xenograft tumor growth, VHL knockdown cells with HIF-2α mutant
Type: in vivo, SCID mice
Conditions: 0.1 mg/kg CCI-779 daily
Protocol: FIGS. 4A-4C. Rescue of CCI-779 growth suppression by HIF-1-α and HIF-2-α prolyl hydcroxylase mutants. SN12C-CSCG-VHLshRNA cells stably infected with the prolyl hydroxylation defective cDNA mutants p-Babe-puro-HA-HIF-1α (P564A), HIF-2α (P405A; P531A) or backbone vector were treated with CCI-779 or vehicle and harvested 24 hours later. (a) Lysates were subjected to immunoblotting for HIF-1α, HIF-2α, GLUT-1, CA-IX, p-eIF4G, p-S6 and β-Actin as loading control. (b) SN12C-VHLshRNA, SN12C-VHLshRNA-HIF-1α mutant, SN12C-VHLshRNA-HIF-2α mutant cells (1×10^5) were cultured in 10% serum rich media, in the presence of vehicle, 1 or 10 nM of CCI-779 for 5 days. Cell growth was measured by cell counts (n=3). […]
For in vitro experiments, cells (5×10^4) were plated and treated with 1 and 10 nM CCI-779 (kind gift of J. Gibbons, Wyeth) or vehicle (ethanol). On day 5-post treatment, cells were trypsinized, resuspended in DMEM with 10% FBS and counted using the VI CELL counter (Beckman Coulter), according to the manufacturer's instructions. […] In vivo tumorigenicity was measured by injection of 5×10^5 SN12C-CSCG, ACHN-CSCG, SN12C-CSCG-VHLshRNAi, ACHN-CSCG-VHLshRNAi, SN12C-CSCG-VHLshRNAi-pBABE, SN12C-CSCG-VHLshRNAi-pBABE-HA-HIF-2α (P405A; P531A) cells in 100 μl of Matrigel (Collaborative Biomedical) subcutaneously into the flanks of SCID mice. […]

SMILES: CO[C@H]1C[C@@H]2CC[C@@H](C)[C@@](O)(O2)C(=O)C(=O)N2CCCC[C@H]2C(=O)O[C@H]([C@H](C)C[C@@H]2CC[C@@H](OC(=O)C(C)(CO)CO)[C@H](OC)C2)CC(=O)[C@H](C)/C=C(\C)[C@@H](O)[C@@H](OC)C(=O)[C@H](C)C[C@H](C)/C=C/C=C/C=C/1C [CCI-779]
- growth inhibitory effect of CCI-779 in HIF mutant xenografts: completely rescued; also recorded: reversal of both the in vitro and in vivo sensitivity
